Results reported in patent US8609678B2, “Reverse amide compounds as protein deacetylase inhibitors and methods of use thereof” (Acetylon Pharmaceuticals, priority 2010, dated 2013).
pIC50: −log10 of the molar value. Where two headings read alike, the source gives them in different places. Each block holds one compound with its values, some of them ahead of it.

How the values were obtained:
HDAC3 = HDAC3 (Homo sapiens (Human), UniProt O15379); experiment: HDAC enzyme assay, HDAC3; assay type: biochemical
Protocol: (§1) Compounds for testing were diluted in DMSO to 50 fold the final concentration and a ten point three fold dilution series was made. The compounds were diluted in assay buffer (50 mM HEPES, pH 7.4, 100 mM KCl, 0.001% Tween-20, 0.05% BSA, 20 μM TCEP) to 6 fold their final concentration. […] The tripeptide substrate and trypsin at 0.05 μM final concentration were diluted in assay buffer at 6 fold their final concentration. The final enzyme concentrations used in these assays were 3.3 ng/ml (HDAC1), 0.2 ng/ml (HDAC2), 0.08 ng/ml (HDAC3) and 2 ng/ml (HDAC6). […] Five μl compounds and 20 μl of enzyme were added to wells of a black, opaque 384 well plate in duplicate. Enzyme and compound were incubated together at room temperature for 10 minutes. […] The development of fluorescence was monitored for 60 min and the linear rate of the reaction was calculated. The IC50 was determined using Graph Pad Prism by a four parameter curve fit.

HDAC6 = HDAC6 (Homo sapiens (Human), UniProt Q9UBN7); experiment: HDAC enzyme assay, HDAC6
Protocol: as §1

refractory relapsed MM = conditions: 202 patients with refractory relapsed MM; cited from earlier work

HDAC6, sequence (Q9UBN7 whole entry): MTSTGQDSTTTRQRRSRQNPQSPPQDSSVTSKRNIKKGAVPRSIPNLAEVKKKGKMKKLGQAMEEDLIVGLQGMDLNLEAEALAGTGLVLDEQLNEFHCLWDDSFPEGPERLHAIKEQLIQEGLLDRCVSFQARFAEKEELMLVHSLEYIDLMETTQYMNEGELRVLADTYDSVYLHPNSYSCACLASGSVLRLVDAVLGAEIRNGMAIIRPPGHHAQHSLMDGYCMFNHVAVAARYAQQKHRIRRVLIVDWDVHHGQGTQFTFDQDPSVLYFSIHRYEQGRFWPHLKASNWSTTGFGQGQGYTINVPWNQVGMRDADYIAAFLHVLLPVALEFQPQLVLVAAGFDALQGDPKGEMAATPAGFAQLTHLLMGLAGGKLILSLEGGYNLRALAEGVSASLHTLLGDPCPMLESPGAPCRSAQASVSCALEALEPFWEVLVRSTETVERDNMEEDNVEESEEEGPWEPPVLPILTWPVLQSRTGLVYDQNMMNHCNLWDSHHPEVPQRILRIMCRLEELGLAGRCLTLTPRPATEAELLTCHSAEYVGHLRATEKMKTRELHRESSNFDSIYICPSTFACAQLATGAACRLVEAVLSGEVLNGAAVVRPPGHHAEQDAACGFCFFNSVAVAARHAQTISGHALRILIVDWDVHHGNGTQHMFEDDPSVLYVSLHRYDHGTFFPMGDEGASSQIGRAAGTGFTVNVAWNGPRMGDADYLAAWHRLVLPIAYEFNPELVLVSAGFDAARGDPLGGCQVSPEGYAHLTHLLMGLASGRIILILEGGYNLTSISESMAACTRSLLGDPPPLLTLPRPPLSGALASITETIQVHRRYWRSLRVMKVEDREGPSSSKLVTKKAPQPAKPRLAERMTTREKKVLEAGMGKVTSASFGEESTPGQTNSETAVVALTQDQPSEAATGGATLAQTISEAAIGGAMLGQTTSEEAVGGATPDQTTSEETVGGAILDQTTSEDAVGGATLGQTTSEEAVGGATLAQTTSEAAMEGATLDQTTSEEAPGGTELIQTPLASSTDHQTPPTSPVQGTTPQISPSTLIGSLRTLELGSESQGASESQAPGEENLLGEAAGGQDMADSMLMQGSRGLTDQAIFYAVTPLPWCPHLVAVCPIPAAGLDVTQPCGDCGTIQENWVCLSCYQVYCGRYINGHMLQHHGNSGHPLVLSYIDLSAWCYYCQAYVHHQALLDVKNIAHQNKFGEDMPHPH
HDAC3, sequence (O15379 whole entry): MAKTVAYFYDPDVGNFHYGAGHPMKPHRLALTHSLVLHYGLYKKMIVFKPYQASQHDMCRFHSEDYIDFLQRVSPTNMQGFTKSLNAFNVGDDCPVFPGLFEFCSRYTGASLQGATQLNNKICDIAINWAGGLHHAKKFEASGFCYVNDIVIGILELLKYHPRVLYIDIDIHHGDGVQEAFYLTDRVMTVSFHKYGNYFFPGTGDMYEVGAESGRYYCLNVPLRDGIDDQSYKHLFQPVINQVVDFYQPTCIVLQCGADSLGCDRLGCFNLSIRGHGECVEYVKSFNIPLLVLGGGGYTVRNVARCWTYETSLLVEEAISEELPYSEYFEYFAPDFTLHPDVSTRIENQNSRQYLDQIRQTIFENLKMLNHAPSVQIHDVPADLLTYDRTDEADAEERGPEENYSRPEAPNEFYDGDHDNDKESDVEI
HDAC3, sequence (Q9Y618 395-489 partner): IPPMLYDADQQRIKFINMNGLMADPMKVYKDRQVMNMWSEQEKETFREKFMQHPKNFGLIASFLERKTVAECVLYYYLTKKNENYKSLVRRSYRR

IC50 (HDAC3; 0.08 ng/ml enzyme, 17 μM tripeptide substrate, read-out: IC50(nM) HDAC3): 243 nM | pIC50 (HDAC6): 8.15
Structure (SMILES): COC(c1ccccc1)(c1ccccc1)c1ccc(C(=O)NCCCCCCC(=O)NO)cc1 [N-(7-(hydroxyamino)-7-oxoheptyl)-4-(methoxydiphenylmethyl)benzamide]

Structure (SMILES): CC(C)C[C@H](NC(=O)[C@H](Cc1ccccc1)NC(=O)c1cnccn1)B(O)O [bortezomib]
complete and near complete responses (refractory relapsed MM): 10% | patients did not respond (refractory relapsed MM): 65% | responses (refractory relapsed MM): 35%

Structure (SMILES): NC(=O)CCCCCCNC(=O)c1cnc(N(c2ccccc2)c2ccccc2)nc1 [N-(7-amino-7-oxoheptyl)-2-(diphenylamino)pyrimidine-5-carboxamide]
IC50 (HDAC3; μM, read-out: IC50 HDAC3): > 50000 nM | IC50 (HDAC6; read-out: IC50 HDAC6, μM): > 50 µM
